{"source": "patent US20230123601A1", "about": "“PHARMACEUTICAL COMBINATION OF ANTIVIRAL AGENTS TARGETING HBV AND/OR AN IMMUNE MODULATOR FOR TREATMENT OF HBV” (priority 2019, published 2023)", "tested_on": "HBV", "test": "HBV-DNA levels in serum of AAV/HBV mice (qPCR)", "format": "in vivo, C57BL/6 mice", "design": "HBV-DNA levels in serum: unit not given here", "source_text": "The AAV-HBV mouse model is generated by injecting C57BL/6 mice with recombinant adeno-associated virus harboring a replicable HBV genome (AAV-HBV). The rAAV8-1.3 HBV ayw virus stock was purchased from Beijing FivePlus Molecular Medicine Institute (Beijing, China). The animals (male, aged 4-5 weeks upon arrival) were purchased from SLAC Laboratory Animal Co. Ltd (Shanghai, China), acclimatized in the animal facility for 5-7 days, and then injected with 1×10^11 vector genome of AAV-HBV (diluted in 200 μL of PBS) through the tail vein. Persistence expression of HBV genome can be established after three weeks, with high levels of HBV viral markers including HBV DNA, HBsAg, and HBeAg in mouse serum. With stable HBV viremia and competent immune system of the C57BL/6 mice, the AAV-HBV mouse model was used to evaluate the in vivo anti-HBV efficacy of the compounds. The in-life part of the AAV-HBV study was conducted through contracted service at Covance Pharmaceutical Research and Development (Shanghai) Co. Ltd. (Covance Shanghai) and the post-life analysis using the serum was performed internally at Roche Innovation Center Shanghai (RICS).\nSeven days before compound treatment, blood samples were collected for serum preparation (˜15 μL), and based on HBV DNA, HBsAg levels in serum and body weight, the AAV-HBV infected animals were stratified into the different treatment groups.\nSaline (Group 01) and anti-HBV ASO of CMP ID NO: 15_1 at 1.5 or 7.5 mg/kg were dosed sub subcutaneously once a week during Day 0-49 on Days 0, 7, 14, 21, 28, 35, 42 and 49. TLR7 agonist of CMP ID NO: VI 100 mg/kg was administered by oral gavage once every other day during Day 0-55 (QOD) or once weekly during Day 0-49 on Days 0, 7, 14, 21, 28, 35, 42 and 49 (QW). The animals were weekly bled via retro-orbital sinus for sample collection throughout the study.\nInitially mice serum was diluted by a factor of 10 (1:10) with Phosphate buffered saline (PBS). DNA was extracted using the MagNA Pure 96 (Roche) robot. 50 μl of the diluted serum was mixed in a processing cartridge with 200 ul MagNA Pure 96 external lysis buffer (Roche, Cat. no. 06374913001) and incubated for 10 minutes. DNA was then extracted using the “MagNA Pure 96 DNA and Viral Nucleic Acid Small Volume Kit” (Roche, Cat. no. 06543588001) and the “Viral NA Plasma SV external lysis 2.0” protocol. DNA elution volume was 50 μl.\nQuantification of extracted HBV DNA was performed using a Taqman qPCR machine (ViiA7, life technologies). Each DNA sample was tested in duplicate in the PCR. 5 μl of DNA sample was added to 15 μl of PCR mastermix containing 10 μl TaqMan Gene Expression Master Mix (Applied Biosystems, Cat. no. 4369016), 0.5 μl PrimeTime XL qPCR Primer/Probe (IDT) and 4.5 μl distilled water in a 384 well plate and the PCR was performed using the following settings: UDG Incubation (2 min, 50° C.), Enzyme Activation (10 min, 95° C.) and PCR (40 cycles with 15 sec, 95° for Denaturing and 1 min, 60° C. for annealing and extension). DNA copy numbers were calculated from Ct values based on a HBV plasmid DNA standard curve by the ViiA7 software.\nTo evaluate the combination of the anti-HBV ASO and the TLR7 agonist in an in vivo system, a mouse model of chronic HBV infection was used. In the AAV/HBV mouse model described in the Materials and Method a persistent HBV infection is established resulting in expression of viral markers (HBsAg, HBeAg, HBV DNA) detectable in plasma. The effect on these viral markers upon treatment with the anti-HBV ASO of CMP ID NO: 15_1 (table 2, and FIG. 4) dosed at 1.5 mg/kg or 7.5 mg/kg and the TLR7 agonist of CMP ID NO: VI (table 3) dosed with […] every other day (QOD) or once weekly (QW) in monotherapy or in combination has been evaluated.", "data": [{"smiles": "CC[C@H](OC(C)=O)[C@@H]1C[C@@H](O)[C@H](n2c(=O)sc3cnc(N)nc32)O1", "note": "[CMP ID NO: VI, [(1S)-1-[(2S,4R,5R)-5-(5-amino-2-oxo-thiazolo[4,5-d]pyrimidin-3-yl)-4-hydroxy-tetrahydrofuran-2-yl]propyl] acetate]", "values": [{"measurement": "HBV-DNA levels in serum", "setting": "TLR7 100 mg/kg QOD, D0", "result": "7.69 ± 0.19"}, {"measurement": "HBV-DNA levels in serum", "setting": "TLR7 100 mg/kg QOD, D7", "result": "5.74 ± 0.62"}, {"measurement": "HBV-DNA levels in serum", "setting": "TLR7 100 mg/kg QOD, D14, 100 mg/kg", "result": "5.73 ± 1.2"}, {"measurement": "HBV-DNA levels in serum", "setting": "TLR7 100 mg/kg QOD, D21", "result": "5.55 ± 0.32"}, {"measurement": "HBV-DNA levels in serum", "setting": "TLR7 100 mg/kg QOD, D28", "result": "5.23 ± 1.02"}, {"measurement": "HBV-DNA levels in serum", "setting": "TLR7 100 mg/kg QOD, D35", "result": "4.69 ± 0.71"}, {"measurement": "HBV-DNA levels in serum", "setting": "TLR7 100 mg/kg QOD, D42", "result": "4.72 ± 0.76"}, {"measurement": "HBV-DNA levels in serum", "setting": "TLR7 100 mg/kg QOD, D49, 100 mg/kg", "result": "4.5 ± 0.55"}, {"measurement": "HBV-DNA levels in serum", "setting": "TLR7 100 mg/kg QOD, D56", "result": "4.59 ± 0.65"}, {"measurement": "HBV-DNA levels in serum", "setting": "TLR7 100 mg/kg QOD, D63, 100 mg/kg", "result": "5.3 ± 1.21"}, {"measurement": "HBV-DNA levels in serum", "setting": "TLR7 100 mg/kg QOD, D70", "result": "5.95 ± 1.17"}, {"measurement": "HBV-DNA levels in serum", "setting": "TLR7 100 mg/kg QOD, D77", "result": "6.01 ± 1.17"}, {"measurement": "HBV-DNA levels in serum", "setting": "TLR7 100 mg/kg QOD, D84", "result": "6.26 ± 1.08"}, {"measurement": "HBV-DNA levels in serum", "setting": "TLR7 100 mg/kg QOD, D91", "result": "5.81 ± 1.09"}, {"measurement": "HBV-DNA levels in serum", "setting": "TLR7 100 mg/kg QOD, D98", "result": "6.02 ± 1.17"}, {"measurement": "HBV-DNA levels in serum", "setting": "TLR7 100 mg/kg QOD, D105", "result": "6.23 ± 1.29"}, {"measurement": "HBV-DNA levels in serum", "setting": "TLR7 100 mg/kg QOD, D111", "result": "6.77 ± 0.64"}, {"measurement": "HBV-DNA levels in serum", "setting": "TLR7 100 mg/kg QW, D0, 100 mg/kg", "result": "7.68 ± 0.2"}, {"measurement": "HBV-DNA levels in serum", "setting": "TLR7 100 mg/kg QW, D7", "result": "7.15 ± 0.67"}, {"measurement": "HBV-DNA levels in serum", "setting": "TLR7 100 mg/kg QW, D14", "result": "7.14 ± 0.47"}, {"measurement": "HBV-DNA levels in serum", "setting": "TLR7 100 mg/kg QW, D21", "result": "6.65 ± 0.75"}, {"measurement": "HBV-DNA levels in serum", "setting": "TLR7 100 mg/kg QW, D28, 100 mg/kg", "result": "6.1 ± 1.25"}, {"measurement": "HBV-DNA levels in serum", "setting": "TLR7 100 mg/kg QW, D35", "result": "6.61 ± 0.98"}, {"measurement": "HBV-DNA levels in serum", "setting": "TLR7 100 mg/kg QW, D42, 100 mg/kg", "result": "6.4 ± 0.84"}, {"measurement": "HBV-DNA levels in serum", "setting": "TLR7 100 mg/kg QW, D49", "result": "6.27 ± 0.89"}, {"measurement": "HBV-DNA levels in serum", "setting": "TLR7 100 mg/kg QW, D56", "result": "6.74 ± 0.64"}, {"measurement": "HBV-DNA levels in serum", "setting": "TLR7 100 mg/kg QW, D63, 100 mg/kg", "result": "6.72 ± 0.7"}, {"measurement": "HBV-DNA levels in serum", "setting": "TLR7 100 mg/kg QW, D70, 100 mg/kg", "result": "6.8 ± 0.64"}, {"measurement": "HBV-DNA levels in serum", "setting": "TLR7 100 mg/kg QW, D77", "result": "6.95 ± 0.53"}, {"measurement": "HBV-DNA levels in serum", "setting": "TLR7 100 mg/kg QW, D84", "result": "6.87 ± 0.49"}, {"measurement": "HBV-DNA levels in serum", "setting": "TLR7 100 mg/kg QW, D91", "result": "6.59 ± 0.52"}, {"measurement": "HBV-DNA levels in serum", "setting": "TLR7 100 mg/kg QW, D98, 100 mg/kg", "result": "6.7 ± 0.4"}, {"measurement": "HBV-DNA levels in serum", "setting": "TLR7 100 mg/kg QW, D105", "result": "6.93 ± 0.43"}, {"measurement": "HBV-DNA levels in serum", "setting": "TLR7 100 mg/kg QW, D111", "result": "7.07 ± 0.45"}, {"measurement": "HBV DNA rebound, distance to control group", "setting": "TLR7 agonist QOD or QW monotherapy, follow-up period", "result": "≤ 1", "unit": "log"}, {"measurement": "reduction of HBV-DNA", "setting": "TLR7 agonist alone", "result": "only reached the LLOQ when dosed every other day (QOD)"}, {"measurement": "timing of HBV DNA rebound", "setting": "TLR7 agonist monotherapy", "result": "occurred sooner after the end of treatment than it did in the anti-HBV ASO treated groups"}, {"measurement": "maximal reduction of HBV-DNA", "setting": "TLR7 agonist monotherapy, QW dosing", "result": "around 1.5 log"}]}]}
